Results published in US20070248488A1, “METHOD AND APPARATUS FOR REDUCING MICROORGANISMS IN WATER” (VORTEX CORPORATION, priority 2006, published 2007).
“And” between values parts separate entries of the source, which are not always exact repeats. Equal values may be shown once.

Assays:
[1] = system: Naegleria fowleri (ATCC #30462) cysts; assay: Test for destruction of Naegleria fowleri in de-chlorinated tap water (MPN viability); type: cell-based; conditions: Initial titer 2.42 × 10^3 cysts/mL, 2 L/minute, UV approx. 48 mJ/cm^2, ozone about 0.08 mg/L
[2] = system: adenoviruses; conditions: Ct value of 0.6 mg/L min, 5° C.; cited from earlier work
[3] = system: heterotrophic plate count; conditions: reduced from 960 cfu/mL; raw water source for drinking water plant; cited from earlier work
[4] = system: Adenovirus 2 (ATCC# VR-846); assay: Adenovirus inactivation in de-chlorinated tap water (TCID50 on PLC cells); type: cell-based; conditions: Initial titer 1.33 × 10^6 TCID50/ml; 2 L/minute; UV approx. 48 mJ/cm^2; ozone about 0.08 mg/L
Description: It was capable of processing 2 liters per minute of water. To study the effects of UV light only, the ozone generated by the apparatus was diverted away and not injected into the water stream. The UV dose (mJ/cm^2) was previously calibrated and found to be approximately 48 mJ/cm^2 as determined by MS-2 coliphagae biodosimetry. To study the effects of ozone only, the UW lamp was shrouded with a stainless steel sleeve to prevent any water from being exposed to the UW light from lamp 14. The ozone dose was measured in all cases to be about 0.08 mg/L. To study the combination of UV light with the ozone, the ozone was injected at the base of vessel 22 via a venturi as previously described.
Log Reductions in microorganisms were calculated as follows: Log 10 Reduction=Log10[Final titer]−Log10[Initial titer]
Adenovirus 2 (ATCC# VR-846) was obtained from the American Type Culture Collection. It was maintained on PLC (Primary Liver Carcinoma, ATCC# CRL-8024) cell line monolayers with MEM (Minimal essential Medium modified with Earle's salts) containing 2$ FBS (Fetal Bovine Serum) at an incubation temperature of 35° C. with 5% CO2. Viruses were purified by centrifugation (7756×g) to remove cell debris followed by polyethylene glycol (9% PEG, 0.5 mol/L NaCl) precipitation. […]

[5] = system: MS-2 coliphage; assay: Ozone and UV disinfection of MS-2 phage in dechlorinated tap water; type: cell-based; conditions: Ozone Level (OR) 400 mV, exposure time 5 min; UV Dose 0 mJ/cm^2; room temperature, pH 7.6; MS-2 3.3×10^7 pfu/mL
Description: Propagation and assay of MS-2 coliphage was performed in accordance with Thurston-Enriquez et al. (2003a). Expected UV inactivation was derived from the work of Thurston-Enriquez et al. (2003a).
Ozone was generated by a corona discharge generator and injected into 4 L of dechlorinated tap water at room temperature and pH 7.6. The water was raised and maintained to an Oxidation Reduction Potential (OR) of 400 mV. On addition of the MS-2 to a concentration of 3.3×10^7 pfu/mL, the OR was maintained at 400 mV for five minutes. At the five minute mark, samples were drawn for MS-2 assay and the water was pumped through a UV (low pressure, high output UV lamp 14) at two gallons per minute. The UV dose was calibrated and known to be 12 mJ/cm^2. Following UV treatment, samples were taken for MS-2 assay. A duplicate trial was performed.

O=[O+][O-] [Ozone, ozone]
Final Titer [1]: 473 mL⁻¹
Log10 Reduction [1]: .071
Log10 Reduction ([1]; listed as ozone): 0.71
inactivation of adenoviruses [2]: more than 4 logs
heterotrophic plate count after ozone disinfection stage [3]: 680 cfu/mL
Final Titer [4]: 2.08 × 10^5 TCID50/ml
Log10 Reduction [4]: 0.81
log Inactivation [5]: 1 log and 1.06 log and 1.00 log
